Test system: 991263-137-R1-J2-PDC complex spheroid viability
Assay: Anticancer human tumor 991263-137-R1-J2-PDC patient-derived colon adenocarcinoma cell line growth inhibition [POLQ]
Conditions: for IC50: curve of first compound; for viability, T/C: stronger effect = lower value
Procedure, shortened: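 Patient-derived tumour cells were co-cultured with HUVEC and mesenchymal stem cells as multicellular spheroids at 37 °C. They were treated with POLQ inhibitors (novobiocin, ART-558, RP6685) alone or combined with other agents. Top concentrations were at or near clinical Cmax (otherwise 10 microM; SN-38 at 1 microM), decreasing in half-log steps.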

[1] = second compound 0.0316 µM, first compound 0.0316 µM
[2] = second compound 0.0316 µM, first compound 0.1 µM
[3] = second compound 0.0316 µM, first compound 0.316 µM
[4] = second compound 0.0316 µM, first compound 1 µM
[5] = second compound 0.0316 µM, first compound 3.16 µM
[6] = second compound 0.0316 µM, first compound 10 µM
[7] = second compound 0.1 µM, first compound 0.0316 µM
[8] = second compound 0.1 µM, first compound 0.1 µM
[9] = second compound 0.1 µM, first compound 0.316 µM
[10] = second compound 0.1 µM, first compound 1 µM
[11] = second compound 0.1 µM, first compound 3.16 µM
[12] = second compound 0.1 µM, first compound 10 µM
[13] = second compound 0.316 µM, first compound 0.0316 µM
[14] = second compound 0.316 µM, first compound 0.1 µM
[15] = second compound 0.316 µM, first compound 0.316 µM
[16] = second compound 0.316 µM, first compound 1 µM
[17] = second compound 0.316 µM, first compound 3.16 µM
[18] = second compound 0.316 µM, first compound 10 µM
[19] = second compound 1 µM, first compound 0.0316 µM
[20] = second compound 1 µM, first compound 0.1 µM
[21] = second compound 1 µM, first compound 0.316 µM
[22] = second compound 1 µM, first compound 1 µM
[23] = second compound 1 µM, first compound 3.16 µM
[24] = second compound 1 µM, first compound 10 µM
[25] = second compound 3.16 µM, first compound 0.0316 µM
[26] = second compound 3.16 µM, first compound 0.1 µM
[27] = second compound 3.16 µM, first compound 0.316 µM
[28] = second compound 3.16 µM, first compound 1 µM
[29] = second compound 3.16 µM, first compound 3.16 µM
[30] = second compound 3.16 µM, first compound 10 µM
[31] = second compound 10 µM, first compound 0.0316 µM
[32] = second compound 10 µM, first compound 0.1 µM
[33] = second compound 10 µM, first compound 0.316 µM
[34] = second compound 10 µM, first compound 1 µM
[35] = second compound 10 µM, first compound 3.16 µM
[36] = second compound 10 µM, first compound 10 µM
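Further: spheroids exposed to compounds for 7 days before readout.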
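Wherever viability, T/C is given: 100% = DMSO vehicle control viability.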

CCc1cc2c(N3CCc4c(cc(Cn5ccnc5)cc4-c4cn(C)nc4C(F)(F)F)C3=O)cc(C)nc2c(OC)n1 + COC1C(OC(N)=O)C(O)C(Oc2ccc3c(O)c(NC(=O)c4ccc(O)c(CC=C(C)C)c4)c(=O)oc3c2C)OC1(C)C
IC50 (second compound 0.0316 µM): > 10 µM | IC50 (second compound 0.1 µM): > 10 µM | IC50 (second compound 0.316 µM): > 10 µM | IC50 (second compound 1 µM): > 10 µM | IC50 (second compound 3.16 µM): > 10 µM | IC50 (second compound 10 µM): > 10 µM | viability, T/C [1]: 108% | viability, T/C [2]: 89.5% | viability, T/C [3]: 103% | viability, T/C [4]: 91.4% | viability, T/C [5]: 100% | viability, T/C [6]: 79.9% | viability, T/C [7]: 109% | viability, T/C [8]: 117% | viability, T/C [9]: 102% | viability, T/C [10]: 89.1% | viability, T/C [11]: 106% | viability, T/C [12]: 101% | viability, T/C [13]: 99.6% | viability, T/C [14]: 113% | viability, T/C [15]: 95.9% | viability, T/C [16]: 92.2% | viability, T/C [17]: 100% | viability, T/C [18]: 88.9% | viability, T/C [19]: 97.4% | viability, T/C [20]: 93.8% | viability, T/C [21]: 81.1% | viability, T/C [22]: 95.8% | viability, T/C [23]: 106% | viability, T/C [24]: 82.2% | viability, T/C [25]: 105% | viability, T/C [26]: 113% | viability, T/C [27]: 101% | viability, T/C [28]: 102% | viability, T/C [29]: 102% | viability, T/C [30]: 86.1% | viability, T/C [31]: 95.4% | viability, T/C [32]: 104% | viability, T/C [33]: 89.8% | viability, T/C [34]: 105% | viability, T/C [35]: 86.4% | viability, T/C [36]: 89.4%

CCc1cc2c(N3CCc4c(cc(Cn5ccnc5)cc4-c4cn(C)nc4C(F)(F)F)C3=O)ccnc2c(OC)n1 + COC1C(OC(N)=O)C(O)C(Oc2ccc3c(O)c(NC(=O)c4ccc(O)c(CC=C(C)C)c4)c(=O)oc3c2C)OC1(C)C
IC50 (second compound 0.0316 µM): > 10 µM | IC50 (second compound 0.1 µM): > 10 µM | IC50 (second compound 0.316 µM): > 10 µM | IC50 (second compound 1 µM): > 10 µM | IC50 (second compound 3.16 µM): > 10 µM | IC50 (second compound 10 µM): > 10 µM | viability, T/C [1]: 99.5% | viability, T/C [2]: 104% | viability, T/C [3]: 110% | viability, T/C [4]: 87.6% | viability, T/C [5]: 102% | viability, T/C [6]: 86.7% | viability, T/C [7]: 104% | viability, T/C [8]: 110% | viability, T/C [9]: 87.4% | viability, T/C [10]: 100% | viability, T/C [11]: 90.8% | viability, T/C [12]: 81% | viability, T/C [13]: 105% | viability, T/C [14]: 108% | viability, T/C [15]: 97.1% | viability, T/C [16]: 104% | viability, T/C [17]: 95.4% | viability, T/C [18]: 99.9% | viability, T/C [19]: 101% | viability, T/C [20]: 107% | viability, T/C [21]: 93.9% | viability, T/C [22]: 86.3% | viability, T/C [23]: 102% | viability, T/C [24]: 90.7% | viability, T/C [25]: 99.2% | viability, T/C [26]: 122% | viability, T/C [27]: 113% | viability, T/C [28]: 96.4% | viability, T/C [29]: 106% | viability, T/C [30]: 107% | viability, T/C [31]: 113% | viability, T/C [32]: 106% | viability, T/C [33]: 108% | viability, T/C [34]: 109% | viability, T/C [35]: 101% | viability, T/C [36]: 91.3%

COc1ccc([C@@H](O)c2cc(-c3ncnc4cc(N5CCOCC5)ccc34)c(F)cc2Cl)nn1 + COC1C(OC(N)=O)C(O)C(Oc2ccc3c(O)c(NC(=O)c4ccc(O)c(CC=C(C)C)c4)c(=O)oc3c2C)OC1(C)C
IC50 (second compound 0.0316 µM): 5.41 µM | IC50 (second compound 0.1 µM): 4.12 µM | IC50 (second compound 0.316 µM): 5.53 µM | IC50 (second compound 1 µM): 2.94 µM | IC50 (second compound 3.16 µM): 6.38 µM | IC50 (second compound 10 µM): 6.09 µM | viability, T/C [1]: 107% | viability, T/C [2]: 96.3% | viability, T/C [3]: 90.8% | viability, T/C [4]: 76.2% | viability, T/C [5]: 71.7% | viability, T/C [6]: 31.5% | viability, T/C [7]: 99.8% | viability, T/C [8]: 98.3% | viability, T/C [9]: 84.6% | viability, T/C [10]: 91.7% | viability, T/C [11]: 55.6% | viability, T/C [12]: 30.9% | viability, T/C [13]: 82.7% | viability, T/C [14]: 107% | viability, T/C [15]: 88.5% | viability, T/C [16]: 71% | viability, T/C [17]: 70.5% | viability, T/C [18]: 33% | viability, T/C [19]: 95.3% | viability, T/C [20]: 107% | viability, T/C [21]: 96.8% | viability, T/C [22]: 70.7% | viability, T/C [23]: 51.9% | viability, T/C [24]: 32.6% | viability, T/C [25]: 94.3% | viability, T/C [26]: 101% | viability, T/C [27]: 96.7% | viability, T/C [28]: 85.6% | viability, T/C [29]: 79.9% | viability, T/C [30]: 32.2% | viability, T/C [31]: 88.1% | viability, T/C [32]: 103% | viability, T/C [33]: 94.8% | viability, T/C [34]: 111% | viability, T/C [35]: 67.1% | viability, T/C [36]: 37.1%

Reference: PubChem BioAssay AID1963828 (Molecular Pharmacology Branch, DTP, NCI, 2024)
